Reference: patent US20100035796A1 (priority 2005, published 2010)

Assays:
sun-damaged skin = conditions: hairless mice; Gendimenico et al. 2002; cited from earlier work
CD74 = assay: Expression of inflammation markers in the wound model (second study): CD74; assay type: in vivo, mice
ERβ = assay: Expression of estrogen receptors in ovariectomised animals: ERβ-positive cells; assay type: in vivo, mice
wound = conditions: cited from earlier work; for wound-healing on topical use: used topically, Ashcroft et al. 2003b
IL-6 = assay: Expression of inflammation markers in the wound model (second study): IL-6; assay type: in vivo, mice
MIF = assay: Expression of inflammation markers in the wound model (second study): MIF; assay type: in vivo, mice
TGF-β = assay: Expression of inflammation markers in the wound model (second study): TGF-β; assay type: in vivo, mice
steroid sulphatase = target: T1, steroid sulphatase (Homo sapiens, UniProt P08842); conditions: R. P. Boivin et al., J. Med. Chem. 2000; cited from earlier work
T1 sequence (P08842 22-583): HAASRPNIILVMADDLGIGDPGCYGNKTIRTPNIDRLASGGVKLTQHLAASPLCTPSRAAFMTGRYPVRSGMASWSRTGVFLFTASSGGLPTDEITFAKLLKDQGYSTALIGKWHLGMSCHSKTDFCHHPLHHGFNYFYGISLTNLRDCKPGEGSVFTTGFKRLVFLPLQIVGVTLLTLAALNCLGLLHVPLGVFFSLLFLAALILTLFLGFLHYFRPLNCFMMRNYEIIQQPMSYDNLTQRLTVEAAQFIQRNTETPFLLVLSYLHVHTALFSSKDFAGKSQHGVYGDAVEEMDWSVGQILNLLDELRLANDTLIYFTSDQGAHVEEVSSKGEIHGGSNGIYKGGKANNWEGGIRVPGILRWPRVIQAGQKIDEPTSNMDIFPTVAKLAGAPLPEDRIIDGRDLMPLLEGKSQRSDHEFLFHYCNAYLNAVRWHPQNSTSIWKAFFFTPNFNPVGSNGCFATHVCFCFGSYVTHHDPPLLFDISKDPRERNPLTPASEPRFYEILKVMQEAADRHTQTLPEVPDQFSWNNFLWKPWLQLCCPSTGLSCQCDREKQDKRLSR

estrogen receptor = assay: Activity on the estrogen receptor in ERE-luc mice, photometric analysis with CCD camera; assay type: in vivo
Procedure: (§1) The activity of two compounds of the invention, 17α-(5-acetoxy)pent-1-inyl-1,3,5(10)-estratriene-3,17β-diol and 17α-(5-propanoyl-oxy)pent-1-inyl-1,3,5(10)-estratriene-3,170-diol, was determined in a cell culture and in a transgenic animal model using female adult ERE-luc mice which were ovariectomised or sham-operated three weeks before the experiment. This model allows the anti-inflammatory activity, effect on the estrogen receptor and wound-healing activity to be evaluated.
(§2) Each of the two test compounds was dissolved immediately before use in 99% ethanol, and a 10 mM mother solution was prepared. The successive dilutions were performed in saline solution (0.9% NaCl in bidistilled water).
The activity on the estrogen receptor was evaluated by photometric analysis with CCD chamber after 0, 24, 48 and 72 hours. The animals were then killed, and the tissue surrounding the wound was removed.

ERα = assay: Expression of estrogen receptors in ovariectomised animals: ERα-positive cells; assay type: in vivo, mice
cutaneous wound = assay: Wound-healing activity: histological sections of the tissue surrounding the wound; assay type: in vivo, mice
Procedure: as §1, §2
Histological sections were prepared from the tissue surrounding the wound to evaluate the wound-healing activity. For the histological preparation, the tissue was fixed in 10% formalin (in buffer solution) and embedded in paraffin wax. The sections were stained with haematoxylin-eosin to evaluate the state of inflammation and wound-healing. The sections were also used to quantify the state of infiltration of the macrophages 4 days after the wound, using anti-Mac2 antibodies, and for further staining designed to detect the state of wound-healing and characterise the cells present in the wound area.

## C[C@]12CC[C@@H]3c4ccc(O)cc4CC[C@H]3[C@@H]1CC[C@H]2O [17α-estradiol]
sun-damaged skin
  repair of sun-damaged skin: repair the sun-damaged skin of hairless mice

## C[C@]12CC[C@@H]3c4ccc(O)cc4CC[C@H]3[C@@H]1CC[C@@H]2O [estradiol, 17beta-estradiol]
CD74
  expression of CD74: limit the expression of all the inflammation proteins studied
ERβ
  number of cells that express the β estrogen receptor: increases the number of cells that test positive for both receptors
wound
  wound-healing on topical use: promote wound-healing
IL-6
  expression of IL-6: limit the expression of all the inflammation proteins studied
MIF
  expression of MIF: limit the expression of all the inflammation proteins studied
sun-damaged skin
  repair of sun-damaged skin: repair the sun-damaged skin of hairless mice
TGF-β
  expression of TGF-β: limit the expression of all the inflammation proteins studied

## C[C@]12CC[C@@H]3c4ccc(O)cc4CC[C@H]3[C@@H]1C[C@@H](O)[C@@H]2O [estriol]
wound; Shah et al. 2001
  activity relative to estradiol: much less active than estradiol
wound
  wound-healing on topical use: promote wound-healing

## CC12CCC3c4ccc(O)cc4CCC3C1CCC2(O)C#CCO (stereo not drawn) [17α-(3-hydroxypropin-1-yl)estradiol]
Steroid sulphatase
  inhibitory effect on steroid sulphatase: very low

## CCC(=O)OCCCC#CC1(O)CCC2C3CCc4cc(O)ccc4C3CCC21C (stereo not drawn) [Example 8, 17α-(5-Propanoyloxy)pent-1-ynyl-1,3,5(10)-estratrien-3,17β-diol]
Estrogen receptor; CCD camera, intradermal in loco
  estrogenic effect in areas other than the area of administration (systemic activity): a slight systemic activity

## CC(=O)OCCCC#C[C@]1(O)CC[C@H]2[C@@H]3CCc4cc(O)ccc4[C@H]3CC[C@@]21C [Example 7, 17α-(5-acetoxy)pent-1-ynyl-1,3,5(10)-estratrien-3,17β-diol]
Estrogen receptor; mouse, in vivo
  estrogenic effect in areas other than the area of administration (systemic activity): does not have a detectable estrogenic effect
  uterotrophic activity: does not present uterotrophic activity
CD74
  expression of CD74: significantly inhibited the expression
ERβ
  number of cells that express the β estrogen receptor: does not significantly reduce the number of cells that express the β receptor
ERα
  number of cells that test positive for the α estrogen receptor: does not act on the number of cells that test positive for the α receptor
MIF
  expression of MIF: significantly inhibited the expression
Cutaneous wound; second study, 5 animals per group, compared with estradiol
  efficacy of the wound-healing effect: statistically similar to that of the natural hormone
Cutaneous wound; summary statement
  effect on the wound-healing process: marked effect on the wound-healing process
TGF-β
  expression of TGF-β: significantly inhibited the expression

## C[C@]12CC[C@@H]3c4ccc(O)cc4CC[C@H]3[C@@H]1CC[C@@]2(O)C#CCBr [17α-(3-bromopropin-1-yl)estradiol]
Steroid sulphatase
  inhibitory effect on steroid sulphatase: high
